Assay results: patent US20080119445A1, “METHODS OF FEMALE SEXUAL ENHANCEMENT” (priority 2004, published 2008)
Where a name gives a salt, the structure may show the parent alone.

Columns and labels:
[1] = system: women; assay: unpublished clinical study of DHEA cream (transdermal) or pellets (subcutaneous) in women; assay type: in vivo, human
Source text: A third embodiment of the present invention comprises a new use of a well-established steroid hormone. The invention includes both the topical application of the hormone in cream form and the subcutaneous implantation of the hormone in pellet form for the purpose of female sexual enhancement.
The hormone is dehydroepiandrosterone (DHEA) and the carrying agent for its topical use is a proprietary compound, Q-base cream. Q-base cream is available to compound pharmacies all over the United States and consists of the following formulation: • purified water, cyclomethicone, octyl stearate, arlacel 165 (PEG-100 stearate/glyceryl stearate), sorbitol, green tea extract (organic), stearyl alcohol, cyclopentasiloxane and PEG/PPG-18/18 dimethicone, gingko extract (organic), ginseng extract (organic), tocotrienols, vitamin E acetate, wheat germ oil, edetate disodium, xanthan gum, vitamin A palmitate, coenzyme Q10, methylchloroisothiazolinone/methylisothiazolin one.
Alternatively, the carrying agent for the DHEA may comprise H-base cream. The formula for H-base cream is as follows: • water, glycerin, canola oil, stearic acid, cetyl alcohol, PEG-100 stearate, glyceryl stearate, dimethicone, magnesium aluminum silicate, propylene glycol, triethanolamine, polysorbate 60, xanthan gum, bitter almond kernel oil, aloe vera, grape seed extract, wheat germ oil, vitamin E acetate, vitamin A palmitate, Vitamin C palmitate, tetrasodium EDTA, potassium sorbate, diazolidinyl urea. H base cream is a proprietary product produced by Professional Compounds Centers of America and licensed by it.
The method of application of either the Q-base cream/DHEA mixture or the H-base cream/DHEA mixture in females is local application to the erectile tissue of the nipples and glans clitoris. The ratio of ingredients comprising the Q-base cream/DHEA mixture is between about 25 mg and about 50 mg of DHEA to about 1 cc of Q-base cream. The ratio of ingredients comprising the H-base cream/DHEA mixture is substantially the same. The resulting mixture is applied one time per day but not related to intercourse. Implantation of subcutaneous DHEA pellets is at the strength of about 25 mg of DHEA per pellet at intervals of between about 2 months and about 3 months. […] Normal levels are considered to be 50-100 picograms per milliliter.
In an unpublished clinical study of the third embodiment of the invention over the past three years patient acceptance and satisfaction has been clear-cut and in excess of 95%. The response is dependent on the patient having normal blood levels of estradiol and testosterone as well. A normal level of DHEA is about 50 to about 100 picograms per milliliter. A normal level of estradiol is about 50 to about 100 picograms per milliliter and a normal level of testosterone is about 200 to about 540 picograms per milliliter. Normal ranges for all these levels can vary from laboratory to laboratory.

[2] = system: women; details: headaches, facial flushing, nasal congestion, indigestion, bluish tinge to vision, blindness; cited from earlier work
[3] = system: women; details: widely used for years; cited from earlier work
[4] = system: women; assay: administration of vardenafil hydrochloride or tadalafil to women prior to sexual activity; assay type: in vivo, human
Method: More particularly, the initial step in the process comprising the first embodiment of the invention comprises identifying a woman desiring sexual enhancement. […] Thereafter, the woman's blood is tested to determine the levels of estradiol and testosterone. If the woman's blood contains an estradiol level within a first predetermined range and a testosterone level within a second predetermined range, the process of the present invention continues. If not, the woman is treated utilizing conventional techniques to bring the level of estradiol in her blood to within the first predetermined range and/or to bring the level of testosterone in her blood to within the second predetermined range. […]
After the required levels of estradiol and testosterone in the woman's blood have either been confirmed or established, a drug selected from the group consisting of vardenafil hydrochloride and tadalafil is administered to the woman prior to sexual activity. […] It has been determined that the selected drug should be administered at least 15-20 minutes prior to the beginning of sexual activity. The optimum time interval between administration of the selected drug and the beginning of sexual activity may vary depending on the particular circumstances and is best determined by the woman through experimentation. […]

[5] = system: women; details: normal estradiol and testosterone levels not established before the drug was used; cited from earlier work

C[C@]12CC[C@H](O)CC1=CC[C@@H]1[C@@H]2CC[C@]2(C)C(=O)CC[C@@H]12 [DHEA, dehydroepiandrosterone]
blood levels, cream versus subcutaneous pellets ([1]; cream once per day versus about 25 mg pellet every 2 to 3 months): Identical blood levels are achieved with both methods of application
patient acceptance and satisfaction ([1]; third embodiment, over the past three years, normal blood levels of estradiol and testosterone): > 95%
female sexual pleasure and satisfaction including sexual arousal and achievement of orgasm ([1]; transdermal or subcutaneous, women with normal estradiol and testosterone): enhanced
blood level above which excess androgen complications occur (male pattern hair loss, excess facial hair growth, acne) ([1]; women): exceed 100 picograms per milliliter
safety profile of administration ([1]; women): extraordinary

CCCc1nn(C)c2c(=O)[nH]c(-c3cc(S(=O)(=O)N4CCN(C)CC4)ccc3OCC)nc12 [VIAGRA, sildenafil citrate]
side effects observed in women using the drug for sexual enhancement [2]: unacceptable side effects

CN1CC(=O)N2[C@H](c3ccc4c(c3)OCO4)c3[nH]c4ccccc4c3C[C@@H]2C1=O [tadalafil]
safety profile [3]: remarkable safety profiles

CCCc1nc(C)c2c(=O)[nH]c(-c3cc(S(=O)(=O)N4CCN(CC)CC4)ccc3OCC)nn12 [vardenafil hydrochloride]
enhancement of sexual arousal and sexual satisfaction in females ([4]; drug given prior to sexual activity): significant enhancement
efficacy in women compared with men ([4]; experiences over the past 2 years, lower dosage, used correctly (normal estradiol and testosterone)): even more effective (lower dosage) in women than in men
safety profile [3]: remarkable safety profiles
efficacy in women [5]: ineffective in women
